Source: the NIST ThermoML archive (doi:10.1021/je100028s)
Numbers after ± are expanded uncertainties.

Conditions: Liquid; for mass density: 293.1 K, 101.33 kPa, Pycnometric method; for vapor or sublimation pressure: Closed cell (Static) method

| SMILES | mass density [kg/m3] | vapor or sublimation pressure (414 K) [kPa] | vapor or sublimation pressure (423.4 K) [kPa] | vapor or sublimation pressure (433.7 K) [kPa] |
| --- | --- | --- | --- | --- |
| OC1CCCCC1 [cyclohexanol] | 941.4 ± 0.9 | – | – | – |
| O=C1CCCCC1 [cyclohexanone] | 947.6 ± 0.9 | – | – | – |
| C1CCCCC1 [cyclohexane] | 778.2 ± 0.7 | 457.67 ± 21 | 555.25 ± 21 | 677.81 ± 21 |
